Results taken from patent publication US7763615B2, “Ecteinascidin analogs for use as antitumour agents” (priority 2001, dated 2010).
Read-outs that look alike come from different tables or passages of the source.

Columns and labels:
A549 = assay: cells; assay type: cell-based; conditions: for GI50: read-out: GI50
Outline: (§1)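 Readout: SRB OD490, triplicate wells. Setup: 5×10^3 cells/well, RPMI 1640 + 10% FBS, 37° C, 5% CO2; 18 h pre-attachment; 48 h sample exposure, 10 to 10^−8 μg/ml. Outputs GI, TGI (cytostatic), LC (cytotoxic).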

DU145 = assay: cells; assay type: cell-based; conditions: Homo sapiens
Outline: as §1

HELA-APL = assay: cells; assay type: cell-based
Outline: as §1

HELA = assay: cells; assay type: cell-based; conditions: HELA, 48 hours exposure, SRB
Outline: as §1

HT29 = assay: cells; assay type: cell-based
Outline: as §1

IGROV-ET = assay: cells; assay type: cell-based; conditions: Homo sapiens, IGROV-ET, 48 hours exposure, SRB
Outline: as §1

IGROV = assay: cells; assay type: cell-based; conditions: Homo sapiens, 48 hours exposure, SRB
Outline: as §1

K562 = assay: cells; assay type: cell-based; conditions: Homo sapiens, K562, 48 hours exposure, SRB
Outline: as §1

LNCAP = assay: cells; assay type: cell-based; conditions: Homo sapiens, 48 hours exposure, SRB
Outline: as §1

LOVO-DOX = assay: cells; assay type: cell-based; conditions: Homo sapiens, LOVO-DOX, 48 hours exposure, SRB
Outline: as §1

LOVO = assay: cells; assay type: cell-based; conditions: Homo sapiens, 48 hours exposure, SRB
Outline: as §1

MEL-28 = assay: cells; assay type: cell-based; conditions: Homo sapiens
Outline: as §1

PANC-1 = assay: cells; assay type: cell-based; conditions: Homo sapiens, PANC-1, 48 hours exposure, SRB
Outline: as §1

SK-BR3 = assay: cells; assay type: cell-based; conditions: Homo sapiens, SK-BR3, 48 hours exposure, SRB
Outline: as §1

A498 = assay: cells; assay type: cell-based; conditions: Homo sapiens
Outline: as §1

MB231 = assay: cells; assay type: cell-based; conditions: Homo sapiens
Outline: as §1

MCF = assay: cells; assay type: cell-based; conditions: Homo sapiens
Outline: as §1

SW-620 = assay: cells; assay type: cell-based; conditions: Homo sapiens
Outline: as §1

[1] = system: AML-12, normal mouse liver cells; conditions: 24 h
[2] = system: NRK-52E, normal rat kidney cells; conditions: 24 h
[3] = system: L8, normal rat skeletal muscle cells; conditions: 24 h
[4] = system: FDC-P1, normal mouse myelogeous stem cells; conditions: 24 h
[5] = system: H9c2 (2-1), normal rat cardiac muscle cells; conditions: 24 h
[6] = DU-145, 48 h, DU145, 48 hours exposure, SRB
[7] = read-out: LC50 (the source's name)
[8] = SK-MEL-28, 48 h, MEL-28, 48 hours exposure, SRB
[9] = Homo sapiens, HT-29, 48 h, HT29, 48 hours exposure, SRB

## COc1c(C)cc2c(c1O)[C@@H]1C3[C@@H]4SC[C@]5(C(=O)COC[C@@H](c6c7c(c(C)c(OC(C)=O)c64)OCO7)N3[C@@H](C#N)[C@H](C2)N1C)c1[nH]c2ccccc2c1CCN5C (some centres unmarked) [Compound 14]
A549; A549, 48 hours exposure, SRB
  TGI: 8.25E−07 Molar
  GI50: 264 nM
A549; A549, 48 hours exposure, SRB, read-out: LC50 (the source's name)
  CC50: 6860 nM
DU145; [6]
  GI50: 94.6 nM
  IC (TGI): 1390 nM
DU145; DU-145, DU145, 48 hours exposure, SRB, read-out: LC50 (the source's name)
  CC50: 12900 nM
HELA-APL; HELA-APL, 48 hours exposure, SRB
  TGI: 4.88E−07 Molar
HELA-APL; Homo sapiens, 48 h
  GI50: 243 nM
HELA-APL; Homo sapiens, HELA-APL, 48 hours exposure, SRB, read-out: LC50 (the source's name)
  CC50: 980 nM
HELA
  TGI: 3.10E−07 Molar
HELA; Homo sapiens
  GI50: 114 nM
HELA; Homo sapiens, read-out: LC50 (the source's name)
  CC50: 810 nM
HT29; HT29, 48 hours exposure, SRB
  GI50: 418 nM
  TGI: 1.59E−06 Molar
HT29; HT29, 48 hours exposure, SRB, read-out: LC50 (the source's name)
  CC50: 12900 nM
IGROV-ET; 48 h
  GI50: 569 nM
  IC (TGI): 1300 nM
IGROV-ET; [7]
  CC50: 12900 nM
IGROV; 48 h
  GI50: 226 nM
  IC (TGI): 744 nM
IGROV; [7]
  CC50: 5140 nM
K562; K562, 48 h
  GI50: 44.7 nM
  IC (TGI): 174 nM
K562; [7]
  CC50: 1290 nM
LNCAP; LNCaP, 48 h
  GI50: 61.2 nM
  IC (TGI): 177 nM
LNCAP; LNCAP, read-out: LC50 (the source's name)
  CC50: 535 nM
LOVO-DOX; 48 h
  GI50: 584 nM
  IC (TGI): 3840 nM
LOVO-DOX; [7]
  CC50: 12900 nM
LOVO; LoVo, 48 h
  GI50: 141 nM
  IC (TGI): 393 nM
LOVO; LOVO, read-out: LC50 (the source's name)
  CC50: 1100 nM
MEL-28; [8]
  GI50: 198 nM
  IC (TGI): 519 nM
MEL-28; SK-MEL-28, MEL-28, 48 hours exposure, SRB, read-out: LC50 (the source's name)
  CC50: 2370 nM
PANC-1; PANC-1, 48 h
  GI50: 276 nM
  IC (TGI): 825 nM
PANC-1; [7]
  CC50: 12900 nM
SK-BR3; SK-BR-3, 48 h
  GI50: 217 nM
  IC (TGI): 537 nM
SK-BR3; SK-BR-3, read-out: LC50 (the source's name)
  CC50: 1620 nM

## COc1c(C)cc2c(c1O)[C@@H]1C3[C@@H]4SC[C@]5(NCCc6c5[nH]c5ccccc65)C(=O)COC[C@@H](c5c6c(c(C)c(OC(C)=O)c54)OCO6)N3[C@@H](O)[C@H](C2)N1C (some centres unmarked) [Compound 26]
A498; A498, 48 h, read-out: LC50
  CC50: 26.5 nM
A498; A498, 48 hours exposure, SRB
  GI50: 2.65 nM
  IC (TGI): 6.62 nM
A549; Homo sapiens, A549, 48 h, A549, 48 hours exposure, SRB
  GI50: 2.65 nM
A549; Homo sapiens, A549, 48 h, A549, 48 hours exposure, SRB, read-out: TGI
  IC (TGI): 3.97 nM
A549; Homo sapiens, A549, 48 h, read-out: LC50, A549, 48 hours exposure, SRB
  CC50: 13.2 nM
DU145; [6]
  GI50: 2.65 nM
  IC (TGI): 3.97 nM
DU145; DU-145, 48 h, read-out: LC50, DU145, 48 hours exposure, SRB
  CC50: 10.6 nM
HT29; [9]
  GI50: 3.97 nM
  IC (TGI): 7.95 nM
HT29; Homo sapiens, HT-29, 48 h, read-out: LC50, HT29, 48 hours exposure, SRB
  CC50: 13.2 nM
MB231; 48 h, read-out: LC50
  CC50: 13.2 nM
MB231; MB231, 48 hours exposure, SRB
  GI50: 2.65 nM
MB231; MB231, 48 hours exposure, SRB, read-out: TGI
  IC (TGI): 5.3 nM
MCF; 48 h, read-out: LC50
  CC50: 11.9 nM
MCF; MCF, 48 hours exposure, SRB
  GI50: 2.65 nM
MCF; MCF, 48 hours exposure, SRB, read-out: TGI
  IC (TGI): 5.3 nM
MEL-28; [8]
  GI50: 2.65 nM
  IC (TGI): 5.3 nM
MEL-28; SK-MEL-28, 48 h, read-out: LC50, MEL-28, 48 hours exposure, SRB
  CC50: 10.6 nM
SW-620; SW-620, 48 h, read-out: LC50
  CC50: 79.5 nM
SW-620; SW-620, 48 hours exposure, SRB
  IC (TGI): 7.95 nM
SW-620; SW-620, 48 hours exposure, SRB, read-out: GI50
  GI50: 2.65 nM
[1]
  Liver: 1.06E−06
[2]
  Kidney: 4.60E−08
[3]
  Skeletal: 3.71E−08
[4]
  Myelo: 1.03E−07
[5]
  Heart: 6.43E−07
